Where a SMILES comes first, the peptide text is derived from it. The star is where a group is joined. Cbz = O=C(OCc1ccccc1)*
Experiments:
P23H opsin = details: previous studies, Noorwez et al. J Biol Chem 2003; cited from earlier work
mutant P23H opsin = experiment: Recovery of correctly folded P23H rhodopsin from tetracycline-inducible HEK293 cells (immunoaffinity purification, absorbance at 500 nm); format: cell-based; details: for recovery of folded rhodopsins: in the presence of 11-cis-retinal, statement covers the rhodopsins of Table 1 (P23H and WT)
Method: (§1) Mutant P23H and wild-type opsins were expressed separately in tetracycline-inducible stable HEK293 cell lines in the presence of 11-cis retinal and various inhibitors. At forty-eight hours, the folded proteins were immununoaffinity purified and quantitated by UV-visible spectroscopy. The total amount of opsin protein was assayed at 280 nm. The amount of rhodopsin present in a biochemically functional conformation was assayed at 500 nm. Immunofluorescence microscopy was also performed to determine the cellular location of the proteins.
(§2) Stable wild-type and P23H opsin expressing HEK293 cell lines were generated in the Flp-In T-Rex system (Invitrogen). The BEK293 cells were grown in DMEM high glucose media supplemented with 10% fetal bovine serum, antibiotic-antimycotic solution, 5 μg/ml blasticidin and hygromycin at 37° C. in the presence of 8% CO2.
(§3) The opsin expressing HEK293 cell lines were allowed to reach confluence and were induced with 1 μg/ml tetracycline after a change of media. 10 μM 11-cis retinal was immediately added after induction under a red light, and inhibitors were added concurrently at the concentrations shown in Table 2 (below).
The plates were incubated for forty-eight hours. 10 uM of retinal was provided twenty-four hours after the first application, under red light.
Forty-eight hours after induction and inhibitor administration the HEK293 cells were harvested and rhodopsin was purified essentially as described in Noorwez et. al. (J Biol. Chem. 2004 Apr. 16; 279(16):16278-84). Spectrophotometric scans were taken in a Varian Cary 50 spectrophotometer.

wild-type opsin = experiment: Recovery of wild-type rhodopsin from tetracycline-inducible HEK293 cells (immunoaffinity purification, absorbance at 500 nm); format: cell-based; details: 11-cis-retinal alone added to media of cells expressing wild-type opsin
Method: as §1, §2, §3
The plates were incubated for forty-eight hours. 10 uM of retinal was provided twenty-four hours after the first application, under red light. […]

Row | Molecule | in vivo folding and stabilization of P23H opsin (P23H opsin) | recovery of folded rhodopsins (mutant P23H opsin) | other results
1 | 7-ring locked isomer of 11-cis-retinal | promotes the in vivo folding and stabilization |  | 
2 | Cn1cnc(N)c2ncnc1-2 [3-methyladenine] |  | increased the recovery | 
3 | CC1=C(/C=C/C(C)=C\C=C\C(C)=C\C=O)C(C)(C)CCC1 [9-cis-1-retinal] | promotes the in vivo folding and stabilization |  | 
4 | CC1=C(/C=C/C(C)=C/C=C/C(C)=C/C=O)C(C)(C)CCC1 [11-cis-retinal] | promotes the in vivo folding and stabilization |  | increase in rhodopsin yield (mutant P23H opsin; 11-cis-retinal alone added to culture medium of cells expressing the P23H mutant): 5-6 fold; effect on rhodopsin yield (wild-type opsin): no effect
5 | Cl.N [Ammonium chloride] |  | increased the recovery | 
6 | C[C@H]1CCC/C=C/[C@@H]2C[C@H](O)C[C@H]2[C@H](O)/C=C/C(=O)O1 [Brefeldin A] |  | increased the recovery | increase in the yield of P23H rhodopsin (mutant P23H opsin; HEK293 cells, inhibitor added at induction with 11-cis-retinal, FIG. 4A): 2 fold
7 | O[C@H]1[C@H](O)[C@@H](O)CN2CC[C@H](O)[C@H]12 [Castanospermine] |  | increased the recovery | 
8 | CC(C)C[C@@H](C=O)NC(=O)[C@H](CC(C)C)NC(=O)[C@H](CC(C)C)NC(=O)OCc1ccccc1 [MG132, N-carbobenzoyl-Leu-Leu-Leu-CHO] (Cbz-Leu-Leu-Leu-aldehyde) |  | increased the recovery | 

Reference: patent publication US20100004156A1, “Small Compounds That Correct Protein Misfolding and Uses Thereof” (priority 2005, published 2010)
